Source: patent US9834551B2, “Substituted pyrrolo[2,3-b]pyrazines and substituted pyrazolo[3,4-b]pyridines as ITK and JAK kinase inhibitors” (Arrien Pharmaceuticals LLC, priority 2013, dated 2017)
pIC50: −log10 of the molar value.

Legend:
[1] = target: JAK3 (Homo sapiens (Human), UniProt P52333); assay: JAK3 kinase assay (radiometric filter assay); type: biochemical; settings: 10 μM ATP; 10-dose IC50 mode, 3 fold serial dilution starting at 100 μM; read-out: JAK3 kinase inhibition
Description: (§1) All additions were done on ice, followed by the addition of ATP mix. Wells were uniformly mixed using an Eppendorff plate shaker and incubated at 30° C. for 20 min, and stopped by the addition of 5 μL of 3% phosphoric acid. Volume was increased to 100 μL by adding 0.8% phosphoric acid which was then transferred to PC filter mats (Millipore), pre-equilibrated with 70% ethanol and water. Plates were washed thrice with 100 μL 0.8% phosphoric acid and dried for an hour at 60° C. 100 μL scintillation fluid was added into each well and reading taken in Perkin Elmer TOPCOUNT beta counter.
(§2) The reactions were carried out at 10 μM ATP for ITK, JAK3 and other TEC and Janus family of kinase.

[2] = target: ITK (Homo sapiens (Human), UniProt Q08881); assay: ITK kinase assay (radiometric filter assay); type: biochemical; settings: 10 μM ATP; 10-dose IC50 mode, 3 fold serial dilution starting at 100 μM; read-out: ITK kinase inhibition
Description: as §1, §2

[3] = system: Established Type II Collagen Arthritis; assay: Established type II collagen arthritis, PO BID, 11 day
Description: Effects of 1H-pyrrolo[2,3-b]pyridine series of compounds Administered PO, BID in 11 Day DBA/1OlaHsd Mouse Established Type II Collagen Arthritis

JAK3, sequence (P52333 whole entry): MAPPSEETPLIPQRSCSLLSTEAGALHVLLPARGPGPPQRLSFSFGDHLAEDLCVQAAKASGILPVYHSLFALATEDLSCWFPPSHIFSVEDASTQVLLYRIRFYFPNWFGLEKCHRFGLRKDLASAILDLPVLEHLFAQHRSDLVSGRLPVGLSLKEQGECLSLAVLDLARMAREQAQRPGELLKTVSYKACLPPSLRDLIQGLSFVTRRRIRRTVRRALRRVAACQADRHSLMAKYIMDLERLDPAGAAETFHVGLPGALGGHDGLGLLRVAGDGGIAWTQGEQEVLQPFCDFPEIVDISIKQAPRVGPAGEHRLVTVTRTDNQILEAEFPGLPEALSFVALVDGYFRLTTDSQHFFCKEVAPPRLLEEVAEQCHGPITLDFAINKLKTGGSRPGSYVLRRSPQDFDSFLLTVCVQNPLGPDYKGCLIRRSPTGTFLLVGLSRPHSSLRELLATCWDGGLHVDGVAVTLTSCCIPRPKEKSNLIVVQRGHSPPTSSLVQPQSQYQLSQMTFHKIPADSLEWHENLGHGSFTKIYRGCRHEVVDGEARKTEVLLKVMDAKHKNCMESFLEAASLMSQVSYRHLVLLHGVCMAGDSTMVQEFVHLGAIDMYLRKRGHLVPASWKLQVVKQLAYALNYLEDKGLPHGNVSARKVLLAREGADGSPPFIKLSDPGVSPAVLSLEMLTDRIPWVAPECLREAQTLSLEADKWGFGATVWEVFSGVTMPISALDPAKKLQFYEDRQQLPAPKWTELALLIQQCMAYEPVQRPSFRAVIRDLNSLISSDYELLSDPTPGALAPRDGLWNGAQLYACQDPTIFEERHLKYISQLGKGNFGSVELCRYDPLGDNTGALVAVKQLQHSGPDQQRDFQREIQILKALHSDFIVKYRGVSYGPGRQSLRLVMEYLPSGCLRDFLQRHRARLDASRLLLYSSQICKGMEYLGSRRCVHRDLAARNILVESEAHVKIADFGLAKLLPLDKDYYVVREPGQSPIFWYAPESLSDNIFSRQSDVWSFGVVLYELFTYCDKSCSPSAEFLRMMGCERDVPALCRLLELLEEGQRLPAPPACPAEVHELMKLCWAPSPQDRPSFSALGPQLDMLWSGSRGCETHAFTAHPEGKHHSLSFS
ITK, sequence (Q08881 whole entry): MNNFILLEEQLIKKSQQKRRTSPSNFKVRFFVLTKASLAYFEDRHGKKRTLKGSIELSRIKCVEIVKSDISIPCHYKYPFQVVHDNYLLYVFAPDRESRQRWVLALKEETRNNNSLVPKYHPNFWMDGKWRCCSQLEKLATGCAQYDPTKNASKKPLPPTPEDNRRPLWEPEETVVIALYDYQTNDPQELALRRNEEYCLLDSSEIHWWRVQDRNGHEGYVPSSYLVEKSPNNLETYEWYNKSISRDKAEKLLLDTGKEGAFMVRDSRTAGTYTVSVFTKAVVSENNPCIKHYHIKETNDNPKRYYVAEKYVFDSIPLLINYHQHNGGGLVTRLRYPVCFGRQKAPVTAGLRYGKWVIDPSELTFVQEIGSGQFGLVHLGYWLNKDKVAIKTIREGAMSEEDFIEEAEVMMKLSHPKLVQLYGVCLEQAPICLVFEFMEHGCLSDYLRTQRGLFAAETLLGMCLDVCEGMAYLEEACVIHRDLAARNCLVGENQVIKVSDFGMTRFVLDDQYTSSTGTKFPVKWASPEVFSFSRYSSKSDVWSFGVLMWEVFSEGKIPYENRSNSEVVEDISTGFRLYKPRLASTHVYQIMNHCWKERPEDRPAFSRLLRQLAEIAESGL

| pIC50 [1] | pIC50 [2] | SMILES | body weight ([3]; 60 mg/Kg) | effectiveness, suppression of the inflammatory response ([3]; collagen-induced arthritis in mice, PO BID) |
| --- | --- | --- | --- | --- |
| > 7.00 | > 7.00 | CCC#CC(=O)Nc1cc(-c2cnc3[nH]cc(C)c3c2)ccc1F [Example 31, N-(2-fluoro-5-(3-methyl-1H-pyrrolo[2,3-b]pyridin-5-yl)phenyl)pent-2-ynamide] |  |  |
| < 7.00 | < 7.00 | C=CC(=O)Nc1cccc(-c2cnc3[nH]cc(NS(=O)(=O)CCC)c3c2)c1 [Example 97, N-(3-(3-(propylsulfonamido)-1H-pyrrolo[2,3-b]pyridin-5-yl)phenyl)acrylamide] |  |  |
|  |  | C[C@@H]1CCN(C(=O)CC#N)C[C@@H]1N(C)c1ncnc2[nH]ccc12 [CP-690550/Tofacitinib, Tofacitinib] | body weight change from day 1 | 97% |
